For four molecules, mass density results are on record in the NIST ThermoML archive (doi:10.1021/je500420g).

SMILES strings stand for the structures. ± gives the expanded uncertainty stated by the source.

The nature of this series: xn = mol fraction of the nth substance listed. The settings on record: 100 kPa, Liquid, Vibrating tube method.

The term mass density denotes mass per unit of volume.

For `[Br-].[Cs+]` [cesium bromide] + O, the mass density by setting is: (293.15 K, x1 = 0.01) 1090.5 ± 0.2 kg/m3; (293.15 K, x1 = 0.03) 1267.9 ± 0.4 kg/m3; (293.15 K, x1 = 0.05) 1438.8 ± 0.5 kg/m3; (303.15 K, x1 = 0.01) 1086.7 ± 0.2 kg/m3; (303.15 K, x1 = 0.03) 1262.8 ± 0.4 kg/m3; (303.15 K, x1 = 0.05) 1432.6 ± 0.5 kg/m3. Besides, the mass density reads like this: (313.15 K, x1 = 0.01) 1082.3 ± 0.3 kg/m3; (313.15 K, x1 = 0.03) 1257.3 ± 0.4 kg/m3; (313.15 K, x1 = 0.05) 1426 ± 0.5 kg/m3; (323.15 K, x1 = 0.01) 1077.6 ± 0.3 kg/m3; (323.15 K, x1 = 0.03) 1251.5 ± 0.4 kg/m3; (323.15 K, x1 = 0.05) 1419.3 ± 0.5 kg/m3. Moreover, the mass density is listed as 1072.4 ± 0.3 kg/m3 (333.15 K, x1 = 0.01); 1245.5 ± 0.4 kg/m3 (333.15 K, x1 = 0.03); 1412.4 ± 0.5 kg/m3 (333.15 K, x1 = 0.05).

Turning to `[Cl-].[Cs+]` [cesium chloride] + O, the mass density (293.15 K, x1 = 0.01) is 1069.9 ± 0.2 kg/m3; the mass density (293.15 K, x1 = 0.03) came out at 1208.3 ± 0.3 kg/m3; the mass density (293.15 K, x1 = 0.05) amounted to 1342.6 ± 0.4 kg/m3; the mass density (303.15 K, x1 = 0.01) was determined as 1066.3 ± 0.2 kg/m3; the mass density (303.15 K, x1 = 0.03) is 1203.6 ± 0.3 kg/m3; the mass density (303.15 K, x1 = 0.05) was 1337 ± 0.4 kg/m3. The mass density is, setting by setting: (313.15 K, x1 = 0.01) 1062.1 ± 0.2 kg/m3; (313.15 K, x1 = 0.03) 1198.6 ± 0.3 kg/m3; (313.15 K, x1 = 0.05) 1331.2 ± 0.4 kg/m3; (323.15 K, x1 = 0.01) 1057.5 ± 0.2 kg/m3; (323.15 K, x1 = 0.03) 1193.2 ± 0.3 kg/m3; (323.15 K, x1 = 0.05) 1325.2 ± 0.4 kg/m3. The mass density (333.15 K, x1 = 0.01) is reported as 1052.4 ± 0.2 kg/m3; the mass density (333.15 K, x1 = 0.03) is recorded as 1187.7 ± 0.3 kg/m3; the mass density (333.15 K, x1 = 0.05) was 1319.1 ± 0.4 kg/m3.

On to `[Cs+].[F-]` [cesium fluoride (CsF)] + O, for which the mass density (293.15 K, x1 = 0.01) stood at 1070.9 ± 0.2 kg/m3; the mass density (293.15 K, x1 = 0.03) was 1210.1 ± 0.3 kg/m3; the mass density (293.15 K, x1 = 0.05) is reported as 1349.9 ± 0.4 kg/m3; the mass density (303.15 K, x1 = 0.01) is reported as 1068 ± 0.2 kg/m3; the mass density (303.15 K, x1 = 0.03) was determined as 1206.2 ± 0.3 kg/m3; the mass density (303.15 K, x1 = 0.05) is on record as 1345.4 ± 0.4 kg/m3. For the same molecule, the mass density came out at 1064.3 ± 0.2 kg/m3 (313.15 K, x1 = 0.01); 1201.7 ± 0.3 kg/m3 (313.15 K, x1 = 0.03); 1340.4 ± 0.4 kg/m3 (313.15 K, x1 = 0.05); 1059.9 ± 0.3 kg/m3 (323.15 K, x1 = 0.01); 1196.6 ± 0.3 kg/m3 (323.15 K, x1 = 0.03); 1334.9 ± 0.4 kg/m3 (323.15 K, x1 = 0.05). Besides, the mass density (333.15 K, x1 = 0.01) amounted to 1053 ± 0.3 kg/m3; the mass density (333.15 K, x1 = 0.03) stood at 1190.9 ± 0.3 kg/m3; the mass density (333.15 K, x1 = 0.05) is given as 1329.1 ± 0.4 kg/m3.

As for `[Cs+].[I-]` [cesium iodide] + O, the mass density amounted to 1109.5 ± 0.3 kg/m3 (293.15 K, x1 = 0.01); 1320.7 ± 0.4 kg/m3 (293.15 K, x1 = 0.03); 1519.4 ± 0.6 kg/m3 (293.15 K, x1 = 0.05); 1105.6 ± 0.3 kg/m3 (303.15 K, x1 = 0.01); 1314.9 ± 0.4 kg/m3 (303.15 K, x1 = 0.03); 1512.1 ± 0.6 kg/m3 (303.15 K, x1 = 0.05). Further, the mass density reads like this: (313.15 K, x1 = 0.01) 1101 ± 0.3 kg/m3; (313.15 K, x1 = 0.03) 1308.9 ± 0.4 kg/m3; (313.15 K, x1 = 0.05) 1504.5 ± 0.6 kg/m3; (323.15 K, x1 = 0.01) 1096 ± 0.3 kg/m3; (323.15 K, x1 = 0.03) 1302.5 ± 0.4 kg/m3; (323.15 K, x1 = 0.05) 1496.9 ± 0.6 kg/m3. Further, the mass density (333.15 K, x1 = 0.01) is on record as 1090.6 ± 0.3 kg/m3; the mass density (333.15 K, x1 = 0.03) is reported as 1295.9 ± 0.4 kg/m3; the mass density (333.15 K, x1 = 0.05) was 1489.1 ± 0.6 kg/m3.
